How the values were obtained:
[1] = test system: Human AML MV-4-11 cells; assay: Inhibition of cell proliferation in cancer cell lines (CellTiter Aqueous One); format: cell-based; design: key: Active: Compounds with an IC50 value less than 30 μM were deemed to be active.; Not Active: Compounds with an IC50 value less than 30 μM were deemed to be active; conditions: 72 hours
Procedure, shortened: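 Exponentially growing MV-4-11 cells were treated immediately with two-fold compound dilutions from 30 µM to 0.2 µM in triplicate for 72 h at 37 °C. Viability was read by MTS (CellTiter Aqueous One) absorbance at 490 nm after 3-4 h; % proliferation vs DMSO gave IC50.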

[2] = test system: arthritic rats; assay: In vivo efficacy in rat collagen induced arthritis; design: species or system female Lewis strain of rats; conditions: collagen Day 1 and 7, dosed Day 11 to Day 17
Description: Rat collagen-induced arthritis is an experimental model of polyarthritis that has been widely used for preclinical testing of numerous anti-arthritic agents. Following administration of collagen, this model establishes a measurable polyarticular inflammation, marked cartilage destruction in association with pannus formation and mild to moderate bone resorption and periosteal bone proliferation. In this model, collagen was administered to female Lewis strain of rats on Day 1 and 7 of study and dosed with compounds from Day 11 to Day 17. Compounds were evaluated to assess the potential to inhibit the inflammation (including paw swelling), cartilage destruction and bone resorption in arthritic rats, using a model in which the treatment is administered after the disease has been established.

[3] = test system: hMCP-1 mRNA; assay: Inhibition of hMCP-1 mRNA transcription in human peripheral blood mononuclear cells; format: cell-based; design: key: Active: Compounds with an IC50 value less than 30 μM were deemed to be active.; Not Active: Compounds with an IC50 value less than 30 μM were deemed to be active; conditions: 3 h
Description: In this example, hMCP-1 mRNA in human peripheral blood mononuclear cells was quantitated to measure the transcriptional inhibition of hMCP-1 when treated with a compound of the present disclosure.
Human Peripheral Blood Mononuclear Cells were plated (1.0×10^5 cells per well) in a 96-well plate in 45 μL RPMI-1640 containing 10% FBS and penicillin/streptomycin. The cells were treated with the test compound (45 μL at 2× concentration), and then the cells were incubated at 37° C. for 3 h before the cells were harvested. At time of harvest, cells were transferred to V-bottom plates and centrifuged at 800 rpm for 5 minutes. Spent media was removed and cell lysis solution (70 μL) was added the cells in each well and incubated for 5-10 min at room temperature, to allow for complete cell lysis and detachment. mRNA was then prepared using the “mRNA Catcher PLUS plate” (Invitrogen), according to the protocol supplied. After the last wash, as much wash buffer as possible was aspirated without allowing the wells to dry. […]
The eluted mRNA isolated was then used in a one-step quantitative real-time PCR reaction, using components of the Ultra Sense Kit together with Applied Biosystems primer-probe mixes. Real-time PCR data was analyzed, normalizing the Ct values for hMCP-1 to an internal control, prior to determining the fold induction of each unknown sample, relative to the control.

- cell proliferation activity (IC50 < 30 μM) [1]: Active
- melting point: 93 to 95 °C
- MCP-1 Activity (IC50 < 30 μM) [3]: Active
SMILES: COc1cc(OC)c2c(=O)[nH]c(-c3ccc(OCCNC(C)C)c(-c4ccc([S+](C)[O-])cc4)n3)nc2c1 (stereo not shown) [Example 41, 2-(5-(2-(Isopropylamino)ethoxy)-6-(4-(methylsulfinyl)phenyl)pyridin-2-yl)-5,7-dimethoxyquinazolin-4(3H)-one]
- In vivo Activity [2]: Active

Reference: patent US9765039B2, “Biaryl derivatives as bromodomain inhibitors” (Zenith Epigenetics Ltd., priority 2012, dated 2017)
